From US20060198882A1, “Stable liposomes or micelles comprising a sphinolipid and a peg-lipopolymer” (priority 2003, published 2006)
Several values for one entry are separate records, joined by “and”; a condition that tells them apart may be missing. Equal values may be shown once. Read-outs that look alike come from different tables or passages of the source.

How the values were obtained:
[1] = Partition in the two phases of the Dole system; format: physicochemical
[2] = Partition in the two phases of the Dole system; format: physicochemical; remark: listed apart in the source
Method: The distribution of the C18 sphingosine-based ceramides with different acyl chain lengths and of DMS between the polar phase and respectively less polar phase (as defined below) of the Dole two phase system was determined. […] The different ceramides included: short (C2 Cer and C4 Cer), medium (C6 Cer and C8 Cer), long (C16 Cer). […] In: Liposome Technology 2nd Edn., G Gregoriadis (Ed.) CRC Press, Boca Raton, 1993, vol. 1, pp: 527-616]. The amount of each of the lipids used in each of the two phases was measured by thin-layer chromatography (TLC). For ceramide quantification TLC was developed in a solvent system containing chloroform/methanol (95:5 v/v). For DMS quantification TLC was developed in a solvent system containing chloroform/methanol/ammonia (89/9/2 v/v). Further, the TLC plate was sprayed with Copper sulfate reagent composed of 100 g anhydrous copper sulfate containing 80 ml of phosphoric acid (85%), %) dissolved in 600 ml of DDW. Copper sulphate reagent was applied to the plates by spraying, then heated and lipids appeared as dark brown spot. […] Quantity of ceramides in each phase was calculated from a standard curve of appropriate ceramide. […] (1993)Supra]. The distribution between the two Dole system phases was determined by the equation (as exemplified for ceramide): [formula] [formula] Where Kp denotes the partition coefficient of a given lipid or amphiphile referred to in the equation as lipid; Cer denotes ceramide; up is an abbreviation for the heptane rich low polarity upper phase and lp is an abbreviation for the polar isopropanol water rich lower phase.

OV-1063 = assay: Methylene blue assay of cell survival; format: cell-based, human; conditions: Table 8B
Description: (§1) Several tumor cell lines in monolayers were used. A human ovarian carcinoma cell line (OV-1063), established at the Hadassah University Hospital, a human colon carcinoma cell line (C-26), a DOX-sensitive M-109S ([…]), and a DOX-resistant, M-109R ([…]). All cell lines were maintained in RPMI-1640 medium supplemented with 10% FCS, antibiotics, and glutamine. All culture medium components were purchased from Biological Industries (Beit-HaEmek, Israel). Both cell lines were maintained at 37° C. in a water-jacketed CO2 incubator.
(§2) a) Various ceramides (Cer) with different chain lengths: short (C2 Cer and C4 Cer), medium (C6 Cer and C8 Cer), and long (C16 Cer) were first dissolved in 100% ethanol to a concentration of 30 mM, added to a serum-containing medium and mixed immediately. The final ethanol concentration in the serum-containing culture medium ranged from 0.1-0.5% (depending on the type of ceramide (Cer)).
(§3) b) Various ceramides with different chain lengths: short C2 Cer, medium C6 Cer, and long C16 Cer were dissolved in ethanol:dodecane (98:2 v/v) to a concentration of 30 mM and added to serum-free medium and mixed. Final concentrations of the ethanol and dodecane in the culture medium containing 10% of FCS ranged from 0.098-0.49% and 0.002-0.01%, respectively, depending on the type of ceramide.
(§4) The cytotoxicity of the examined assemblies comprising ceramide was tested by the methylene blue ([…]) staining assay [Gorodetsky, R. et al. Int. J. Cancer. 75:635-642 (1998)]. A known number of exponentially growing cells in 200 μL of medium were plated in 96-microwell, flat-bottomed plates. For each of the variants tested, 4 wells were used. Following 24 hr of incubation in culture, 20 μL of different concentrations of the examined assemblies were added to each well containing untreated cells.
(§5) The following controls were used: Citrate buffer (5 mM, pH 7); Ethanol solution in medium RPMI 1640 (final concentration of 0.1%); A solution RPMI 1640 of ethanol:dodecane (98:2 […]) at a final concentration of 0.1% and 0.2%, respectively.
(§6) Cells were exposed to assemblies for 4, 24, 72 or 96 hr. At the end of assembly exposure, for a fixed time interval, the drug-treated cells, as well as parallel control cells, were washed, and the incubation continued in fresh medium until termination of the experiment. Following 72 hr or 96 hr of growth, cells were fixed by adding 50 μL of 2.5% glutaraldehyde to each well for 15 min. Fixed cells were rinsed 10 times with deionized water and once with borate buffer (0.1 M, pH 8.5), dried, and stained with MB (100 μL of 1% solution in 0.1 M borate buffer, pH 8.5) for 1 h at room temperature (r.t.). Stained cells were rinsed thoroughly with de-ionized water to remove any non-cell-bound dye and then dried. The MB bound to the fixed cells was extracted by incubation at 37° C. with 200 μL of 0.1 N HCl for 1 h, and the net optical density of the dye in each well was determined by a plate spectrophotometer (Labsystems Multyskan Bichromatic, Finland) at 620 nm.

C-26 = assay: Methylene blue assay of cell survival; format: cell-based, human; conditions: Table 8B
Description: as §1, §2, §3, §4, §5, §6

[3] = Surface-pressure area isotherms; format: physicochemical; conditions: for minimal area per molecule: constant pressure of 20 mN/m; for collapse point pressure of monolayer: pure water sub-phase; for Area/molecule: table, monolayer on pure water sub-phase
Method: The tested ceramides (C2 Cer, C4 Cer, C6 Cer, C8 Cer, C16 Cer) were dried in vacuum overnight, weighted and dissolved in hexane/isopropanol (3:2 vol.) to make the following stock solutions.
The surface-pressure/area isotherms were obtained on pure water sub-phase (similar isotherms were obtained on 140 mM NaCl). Barrier speed during compression was […] for all monolayers.
The minimal area per molecule of different ceramides (C2 Cer, C4 Cer, C6 Cer, C8 Cer, C16 Cer) was calculated at the constant pressure of 20 mN/m. […] The area per molecule of C2 Cer, C4 Cer, C8 Cer, C16 Cer was about 38, 46, 45.5, and 37.5^2, respectively.

C-26 cells = assay: Apoptosis by chromatin morphology (Hoechst-33342, confocal microscopy); format: cell-based, human; conditions: 24 hr
Method: (§7) a) The morphology of chromatin was assessed by staining with Hoechst-33342 obtained from Calbiochem (La Jolla, Calif.), a molecule which when reside in the minor groove of the DNA strand enhance its fluorescence intensity and, therefore, it is preferentially stains dsDNA [Jouvet, P. Mol. Biol. Cell 11:1919-1932 (2000)]. Briefly, samples containing 5*10^5 cells were cultured on 6-well plates covered with a glass coverslip. After treatment of cells with IC50 of drugs, cells were washed with PBS and fixated with 4% formaldehyde. After that cells were stained with Hoechst-33342 (5 μg/ml) and washed. Thereafter, glass coverslip was placed on a glass slide and photographed using a CLMS.

OV-1063 cells = assay: as above; format: cell-based, human; conditions: 24 hr
Method: as §7

[4] = read-out: IC50 (μM), 4 hr OV-1063
[5] = read-out: IC50 (μM), 24 hr OV-1063
[6] = read-out: IC50 (μM), 72 hr OV-1063
[7] = read-out: IC50 (μM), 24 hr C-26
[8] = read-out: IC50 (μM), 72 hr C-26

Liposome formation (being a liposome forming lipid by itself) [1]	% of lipid in heptane-rich upper phase ([2]; Dole two phase system)	% of lipid in isopropanol/water lower phase ([2]; Dole two phase system)	Kp (heptane rich/isopropanol and water rich partition coefficient) ([2]; Dole two phase system)	minimal area per molecule [3]	collapse point pressure of monolayer [3]	Area/molecule [3]	Kp (heptane rich/isopropanol and water rich partition coefficient) [2]	monolayer stability [3]	Compound	IC50 (OV-1063; [4])	IC50 (OV-1063; [5])	IC50 (OV-1063; [6])	IC50 (C-26; read-out: IC50 (μM), 4 hr C-26)	IC50 (C-26; [7])	IC50 (C-26; [8])	Apoptotic C-26 cells (% of total cell number), 24 hr (C-26 cells)	Apoptotic OV-1063 cells (% of total cell number), 24 hr (OV-1063 cells)
Yes	36%	64%	1.13	–	–	–	–	–	hydrogenated soybean phosphatidylcholine [HSPC]	–	–	–	–	–	–	–	–
No	72%	28%	–	~45.5 Å^2	about 42 mN/m	45.5 A^2	5.25	–	CCCCCCCCCCCCC/C=C/[C@@H](O)[C@H](CO)NC(=O)CCCCCCC [C8Cer, N-octanoyl-D-erythro-sphingosine]	> 40 µM	23.7 ± 1 µM	19 ± 1.4 µM	> 40 µM	23 ± 1.4 µM	21.5 ± 2.1 µM	–	–
No	32% and 31.5%	68.5%	–	~46 Å^2	about 42 mN/m	46 A^2	0.92	almost as stable as all the others	CCCCCCCCCCCCC/C=C/[C@@H](O)[C@H](CO)NC(=O)CCC [C4Cer, N-tetranoyl-D-erythro-sphingosine]	10 ± 2.7 µM	5.9 ± 0.14 µM	3.95 ± 0.6 µM	15.5 ± 3.5 µM	6.25 ± 0.35 µM	3.75 ± 0.35 µM	10%	58%
Yes	15.2%	84.8%	0.35	–	–	–	–	–	Egg phosphatidylcholine [EPC]	–	–	–	–	–	–	–	–
